These results are taken from publication PMC12535076, “Neurotherapeutic effects of Vutiglabridin as a Paraoxonase-2 modulator in preclinical models of Parkinson’s disease” (Molecular Neurodegeneration, 2025).

Where two headings read alike, the source gives them in different places.

Series [1] is described as follows: Quantification of drug concentration in plasma and brain of mice (LC-MS/MS). In kind it is in vivo, C57BL/6J mice. The conditions noted are these: mouse. The method, then:
Male C57BL/6J mice (8 weeks old, n = 24, non-fasted; Charles River Japan (CRJ), OrientBio, Seongnam, Korea) were dosed with 50 mg/kg of Vuti once and sacrificed at 0, 1, 2, 4, 6, 8, 10, 24 h time point (n = 3 per time point). Their whole blood was collected via the vena cava in a heparin-coated syringe and their whole brain was collected after perfusion with 0.9% saline. Vuti was quantified in both plasma and brain samples using LC-MS/MS analysis. This study was performed in accordance with the Association for Assessment and Accreditation of Laboratory Animal Care International (AAALAC; Approval No. LCDI-2021-0027).
LC-MS/MS analysis to quantify Vuti used previously set conditions. Briefly, HPLC-ESI-MS/MS analyses were performed using a 1200 series HPLC system (Agilent Technologies, Wilmington, DE) coupled to 6490 Accurate-Mass Triple Quadrupole Mass Spectrometer (Agilent Technologies, Wilmington, DE). Mass detection was performed in the positive ion mode, and the column temperature was maintained at 40 °C using a thermostatically controlled column oven. The column used for the separation was Hypersil GOLD C18 column (2.1 × 100 mm ID; 1.9 μm, Thermo Science). The mobile phases consisted of 0.1% acetic acid in distilled water (solvent A) and 0.1% acetic acid in ACN: MeOH = 3:1 (v/v) (solvent B). The LC gradient was as follows: 0–3 min, B 20%; 3–5 min, B 20 − 80%; 5–8 min, B 80%; 8–10 min, B 80 − 20%; and 10–15 min, B 20%. The flow rate was 250 µL/ min, and the total run time was 15 min. For multiple reaction monitoring (MRM) analyses, the target transition used was 355.1/151.0 m/z for Vuti. The collision energy was 17 V and nitrogen was used as the desolvation gas at a flow rate of 11 L/min and at 300 °C. Skyline software (MacCoss Laboratory, University of Washington, Seattle, WA) was used to process the LC-MS/MS data.

Series [2] concerns primary cultured astrocytes. Kind of series: Intracellular H2O2 (oROS-G sensor) in 6-OHDA-treated astrocytes. The class given is cell-based. How it is done:
Intracellular H2O2 levels in astrocytes were measured using a genetically encoded oROS-G plasmid, which is highly sensitive and specific for H2O2 with rapid on-and-off kinetics. The plasmid was generously provided by Dr. Andre Berndt and was cloned under the GFAP104 promoter. Transfection into primary cultured hippocampal astrocytes was carried out using the NeoNTM transfection system (Invitrogen). Astrocytes were seeded into 96-well black plates (ibidi, USA) and treated with 6-OHDA (10 µM) in the presence of 1, 10, and 30 µM of Vuti. Fluorescence changes were monitored using a Nikon A1 confocal microscope over a period of 21 h for live cell imaging. The fluorescence intensity for each region of interest (ROI) was analyzed using Nikon software, and the data were normalized to control values for the IC50. The IC50 value for Vuti was determined using GraphPad Prism software.

Series [3] deals with AAV-A53T injected C57BL/6J mice. Kind of series: AAV-α-syn A53T-injected mouse model. The class given is in vivo. How it is done: Male C57BL/6J mice (7 week-age-old) were used for inducing the α-syn A53T model and treating Vuti and vehicle. All mice were maintained in a specific pathogen-free animal facility under a 12:12-h light-dark cycle (lights on at 8:00 AM) at a temperature of 21℃ and allowed ad libitum access to food and water. All experiments and animal care were performed in accordance with the guidelines of the Institutional Animal Care and Use Committee (IACUC) of IBS, Daejeon, South Korea (IBS-IBC-2022-12). Mice were anesthetized under isoflurane anesthesia (induction: 3%–4%, maintenance: 1.5%–2%) and placed into stereotaxic (RWD, China). For establishing the α-syn A53T mouse model, 2µL of AAV-CMV-A53T-Asyn or AAV-CMV-EGFP (5 × 10^12 genomic copies/mL, packaged by the IBS virus facility) was injected into the SNpc (AP − 3.2 mm, ML ± 1.3 mm, DV − 4.0 mm relative to the bregma; 0.2µL/min) bilaterally. Oral administration of 50 mg/kg Vuti (Vuti 50) or the vehicle (Veh) was started 5 weeks after the virus injection, once a day for 12 weeks. Mice were used for behavior tests and immunostaining after completing drug treatment. Vertical grid test was performed as described before. For 5 days, mice were allowed for habituation in the test room. Prior to the trial session, the mice were acclimated to the vertical grid for 2 days. For the experiment, individual mice were gently placed 3 cm from the top, facing upward, and allowed to turn around and climb down. […] Starting from the fourth week after the injection, trials are conducted at two-week intervals.
Mice were deeply anaesthetized with isoflurane and perfused transcranial with 0.9% saline ice-cold 4% paraformaldehyde (PFA). Excised brains were postfixed at 4 °C overnight and transferred to 30% sucrose for 48 h for dehydration. Coronal sections of 30 μm thickness (20 μm thickness for super-resolution imaging) were prepared in a cryostat and stored in a storage solution at 4 °C. Brain tissues were washed in PBS and incubated in a blocking solution (0.3% Triton X-100, 2% Donkey Serum, 2% Goat Serum in 0.1 M PBS). Primary antibodies were added to the blocking solution at desired dilution and the sections were incubated in a shaker at 4 °C overnight. Primary antibodies used for immunostaining were anti-TH (rabbit, 1:200, Pel-freez, P40101-150), GFAP (chicken, 1:500, Millipore, AB5541), Iba-1 (rabbit, 1:500, Wako, 019-19741), DDC (rabbit, 1:200, abCam, ab3905), GABA (guinea pig, 1:200, Millipore, AB175), anti-PON2 (rabbit, 1:200, abCam, ab183710). Unbound antibodies were washed off using PBS, followed by corresponding secondary antibody incubation (in blocking solution) for 1–2 h at room temperature. Unbound antibodies were washed with PBS and DAPI was added to PBS (1:1500 dilution). Sections were mounted with fluorescent mounting medium (Dako) and dried. A series of fluorescent images were obtained using Zeiss LSM900 confocal microscope. Super-resolution image for PON2 signals imaged by Zeiss Lattice SIM (Structure-illumination microscope) and all images were processed using ImageJ (Fiji) software.

By Tmax is commonly meant the time at which the peak concentration occurs. Usually IC50 stands for the midpoint of a concentration-inhibition curve. `CCOc1ccc(C2COc3c(ccc4c3CCC(C)(C)O4)C2)c(O)c1` (centres unmarked) [Vuti, Vutiglabridin]: the Kp at 6 h in series [1] (male, C57BL/6J, brain / plasma, oral, single 50 mg/kg, at Tmax of 6 h, read-out: brain concentration relative to plasma) was found to be 2.7. Also, in series [1] (male, C57BL/6J, brain / plasma, single oral 50 mg/kg, read-out: brain relative to plasma by AUC24h), the Kp came out at 2.6. The concentration at 6 h in series [1] (male, C57BL/6J, brain, single oral 50 mg/kg, at Tmax of 6 h, read-out: concentration in brain) worked out at 4030 ng/g. Moreover, the Tmax in series [1] (male, C57BL/6J, plasma, single oral 50 mg/kg) came out at 6 h. In addition, the concentration at 6 h in series [1] (male, C57BL/6J, plasma, single oral 50 mg/kg, at Tmax of 6 h, read-out: concentration in plasma) was determined as 1490 ng/mL. The AUC(0-t) in series [1] (male, C57BL/6J, plasma, single oral 50 mg/kg, read-out: AUC24h in plasma) worked out at 16100 ng·h/mL. In series [1] (single oral 50 mg/kg), this molecule returned an AUC24h in brain of 42.5 µg·h/g. Besides, in series [2] (30 µM Vuti), the “ROS levels in 6-OHDA-treated astrocytes” value was “significantly reduced ROS levels”. In addition, the IC50 in series [2] (Astrocyte, 6-OHDA 10 µM treated primary cultured astrocytes, Vuti 1, 10, 30 µM, read-out: normalized IC50 (ROS, oROS-G sensor imaging)) was determined as 21 µM. For the same molecule, in series [3] (A53T mice, Vuti 50 mg/kg), the “GFAP and Iba1 levels (astrocytes and microglia)” value is “normalization”; the “amount of GABA in astrocytes” value was “decrease”; the “intracellular α-syn levels” value is recorded as “decreased”. The “step failure in the vertical grid test” value in series [3] (A53T mice, Vuti 50 mg/kg oral from week 5, within 5 to 7 weeks of administration (weeks 10-12)) is “statistically significant improvements”. In addition, in series [3] (A53T mice, Vuti 50 mg/kg, 12 weeks after AAV-A53T injection), the “DDC-positive cells in SNpc” value is “significantly increased”. For the same molecule, in series [3] (A53T mice, Vuti 50 mg/kg, 12 weeks after AAV-A53T injection, vs vehicle), the “TH-positive cells in SNpc” value is on record as “significant increase”. The PON2 protein level entry in series [3] (A53T mouse model and WT + Vuti group, IHC and Western blot) is reported as “remained unchanged”. Besides, the “TH+/DDC+ ratio” value in series [3] (α-syn A53T overexpressed PD model) was “doubled”.
